Experimental data: PubChem BioAssay AID624480 (The Scripps Research Institute Molecular Screening Center, 2012)
Active and inactive are the calls of the source.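 Rule for the calls: active = inhibition of probe labeling in the gel above a set limit; inactive = inhibition at or below that limit.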

Target: Prolyl endopeptidase-like (Mus musculus) (UniProt Q8C167)
Assay: PREPL inhibitors in brain proteome, biochemical, gel-based competitive ABPP, fluorescence, mouse, assay provider (AID 624480)
Conditions: mouse brain proteome spiked PREPL, FP-Rh gel ABPP; at 50 µM; active compounds read high

Prolyl endopeptidase-like (Mus musculus), sequence (Q8C167 whole entry, looked up): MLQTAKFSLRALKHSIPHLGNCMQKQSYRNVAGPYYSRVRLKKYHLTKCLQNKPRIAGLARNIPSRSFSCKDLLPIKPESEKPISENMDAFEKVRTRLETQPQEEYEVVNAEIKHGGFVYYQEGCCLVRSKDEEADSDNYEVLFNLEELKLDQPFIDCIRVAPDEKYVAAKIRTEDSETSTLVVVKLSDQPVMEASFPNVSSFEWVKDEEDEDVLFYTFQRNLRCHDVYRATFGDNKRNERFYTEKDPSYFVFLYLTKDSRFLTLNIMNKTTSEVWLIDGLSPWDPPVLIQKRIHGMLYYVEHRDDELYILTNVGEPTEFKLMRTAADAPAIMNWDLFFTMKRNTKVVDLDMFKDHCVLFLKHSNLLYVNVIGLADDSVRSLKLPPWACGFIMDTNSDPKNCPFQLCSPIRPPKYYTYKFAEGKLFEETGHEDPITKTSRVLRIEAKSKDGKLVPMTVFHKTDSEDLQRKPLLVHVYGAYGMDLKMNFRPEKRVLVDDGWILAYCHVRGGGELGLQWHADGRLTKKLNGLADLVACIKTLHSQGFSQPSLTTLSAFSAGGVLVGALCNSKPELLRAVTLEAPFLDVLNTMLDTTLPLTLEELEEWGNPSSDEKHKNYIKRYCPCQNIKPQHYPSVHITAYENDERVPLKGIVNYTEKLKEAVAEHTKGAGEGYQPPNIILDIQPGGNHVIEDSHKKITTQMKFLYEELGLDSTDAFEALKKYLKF

SMILES | inhibition
CCOc1ccc(CCNC(=O)c2ccc3c(=O)[nH]c4c(C(=O)NC(C)C)sc(=S)n4c3c2)cc1 | 25%
COc1cc2nc(Nc3ccc(C)c(C)c3)nc(N)c2cc1OC | 17% (inactive)
O=C(Nc1ccc2c(c1)OCCO2)c1cccc2nc3ccccc3nc12 | 15% (inactive)
CC(C)Cc1[nH]c(=O)c(C#N)c2c1CCC2 | 70%
N#Cc1c2c(c(-c3ccccc3)[nH]c1=O)CCCC2 | 41%
